Source: US12448389B2, “BRM targeting compounds and associated methods of use” (Prelude Therapeutics Incorporated, priority 2020, dated 2025)

What was measured:
SMARCA4-HiBiT = biological target: T1, SMARCA4-HiBiT (Homo sapiens, UniProt P51532); assay: SMARCA4 HiBiT degradation assay in HeLa cells; assay type: cell-based; conditions: 18 hours incubation; for DC50: read-out: HeLa-HiBit-SM4 DC50; for Dmax: HeLa, read-out: HeLa-HiBit-SM4 Dmax (%)
T1 construct: SMARCA4-HiBiT knock-in Hela monoclonal cell (CS3023226); host or cells: HeLa monoclonal knock-in line (CRISPR HiBiT knock-in at the endogenous locus, heterozygous)
Procedure, shortened: (§1)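 HeLa monoclonal lines with heterozygous HiBiT knock-in were seeded at 2500 cells/well in EMEM with 10% FBS and treated with compound for 18 h at 37 °C. Remaining tagged protein was measured by Nano-Glo HiBiT lytic luminescence after 30–60 min at RT, and values came from curve fitting.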

SMARCA2-HiBiT = biological target: T2, SMARCA2-HiBiT (Homo sapiens, UniProt P51531); assay: SMARCA2 HiBiT degradation assay in HeLa cells; assay type: cell-based; conditions: 18 hours incubation; for DC50: read-out: HeLa_HiBit-SM2 DC50; for Dmax: HeLa, read-out: HeLa-HiBit-SM2 Dmax (%)
T2 construct: SMARCA2-HiBiT knock-in Hela monoclonal cell (CS302366); host or cells: HeLa monoclonal knock-in line (CRISPR HiBiT knock-in at the endogenous locus, heterozygous)
Procedure, shortened: as §1

T2 sequence (P51531 whole entry): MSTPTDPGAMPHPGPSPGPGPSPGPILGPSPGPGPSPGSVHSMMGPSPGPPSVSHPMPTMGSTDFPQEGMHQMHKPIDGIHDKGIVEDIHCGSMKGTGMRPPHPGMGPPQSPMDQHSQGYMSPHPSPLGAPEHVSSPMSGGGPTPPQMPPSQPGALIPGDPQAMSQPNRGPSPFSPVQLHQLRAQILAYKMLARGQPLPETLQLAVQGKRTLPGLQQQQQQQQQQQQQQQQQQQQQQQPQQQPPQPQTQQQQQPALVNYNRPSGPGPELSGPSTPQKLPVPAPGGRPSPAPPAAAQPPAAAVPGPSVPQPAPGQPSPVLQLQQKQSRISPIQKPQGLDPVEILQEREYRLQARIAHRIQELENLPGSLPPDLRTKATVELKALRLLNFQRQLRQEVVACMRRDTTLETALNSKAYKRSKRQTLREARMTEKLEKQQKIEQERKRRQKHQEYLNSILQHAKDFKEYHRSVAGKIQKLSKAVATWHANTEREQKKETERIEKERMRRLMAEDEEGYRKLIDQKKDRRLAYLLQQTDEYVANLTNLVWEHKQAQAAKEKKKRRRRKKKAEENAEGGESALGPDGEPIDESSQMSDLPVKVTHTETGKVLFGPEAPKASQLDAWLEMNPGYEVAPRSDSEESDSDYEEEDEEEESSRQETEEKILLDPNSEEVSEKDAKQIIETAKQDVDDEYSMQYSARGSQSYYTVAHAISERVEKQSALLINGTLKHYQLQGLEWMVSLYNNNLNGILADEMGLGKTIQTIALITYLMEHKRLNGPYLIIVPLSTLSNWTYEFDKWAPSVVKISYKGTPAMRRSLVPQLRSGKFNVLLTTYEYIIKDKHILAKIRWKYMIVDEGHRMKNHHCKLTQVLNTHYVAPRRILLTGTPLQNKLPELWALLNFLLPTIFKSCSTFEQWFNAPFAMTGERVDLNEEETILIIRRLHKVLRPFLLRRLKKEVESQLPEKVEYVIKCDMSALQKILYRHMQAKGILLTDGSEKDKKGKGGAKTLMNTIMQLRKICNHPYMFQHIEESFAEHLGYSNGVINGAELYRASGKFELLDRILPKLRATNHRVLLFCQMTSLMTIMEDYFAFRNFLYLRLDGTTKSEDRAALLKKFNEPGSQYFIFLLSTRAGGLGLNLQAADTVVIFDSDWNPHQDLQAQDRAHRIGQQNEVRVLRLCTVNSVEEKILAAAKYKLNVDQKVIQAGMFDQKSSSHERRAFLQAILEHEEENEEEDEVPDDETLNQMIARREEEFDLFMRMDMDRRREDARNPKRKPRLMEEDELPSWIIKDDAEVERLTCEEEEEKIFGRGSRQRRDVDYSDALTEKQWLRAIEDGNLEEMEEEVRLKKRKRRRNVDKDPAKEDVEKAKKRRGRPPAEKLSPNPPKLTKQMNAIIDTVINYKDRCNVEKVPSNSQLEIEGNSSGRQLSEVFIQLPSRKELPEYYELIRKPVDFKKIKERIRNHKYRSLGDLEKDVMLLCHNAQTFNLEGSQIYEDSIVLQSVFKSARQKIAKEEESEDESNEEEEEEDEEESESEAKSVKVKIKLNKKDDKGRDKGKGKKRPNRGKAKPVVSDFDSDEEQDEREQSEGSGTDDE
T1 sequence (P51532 whole entry): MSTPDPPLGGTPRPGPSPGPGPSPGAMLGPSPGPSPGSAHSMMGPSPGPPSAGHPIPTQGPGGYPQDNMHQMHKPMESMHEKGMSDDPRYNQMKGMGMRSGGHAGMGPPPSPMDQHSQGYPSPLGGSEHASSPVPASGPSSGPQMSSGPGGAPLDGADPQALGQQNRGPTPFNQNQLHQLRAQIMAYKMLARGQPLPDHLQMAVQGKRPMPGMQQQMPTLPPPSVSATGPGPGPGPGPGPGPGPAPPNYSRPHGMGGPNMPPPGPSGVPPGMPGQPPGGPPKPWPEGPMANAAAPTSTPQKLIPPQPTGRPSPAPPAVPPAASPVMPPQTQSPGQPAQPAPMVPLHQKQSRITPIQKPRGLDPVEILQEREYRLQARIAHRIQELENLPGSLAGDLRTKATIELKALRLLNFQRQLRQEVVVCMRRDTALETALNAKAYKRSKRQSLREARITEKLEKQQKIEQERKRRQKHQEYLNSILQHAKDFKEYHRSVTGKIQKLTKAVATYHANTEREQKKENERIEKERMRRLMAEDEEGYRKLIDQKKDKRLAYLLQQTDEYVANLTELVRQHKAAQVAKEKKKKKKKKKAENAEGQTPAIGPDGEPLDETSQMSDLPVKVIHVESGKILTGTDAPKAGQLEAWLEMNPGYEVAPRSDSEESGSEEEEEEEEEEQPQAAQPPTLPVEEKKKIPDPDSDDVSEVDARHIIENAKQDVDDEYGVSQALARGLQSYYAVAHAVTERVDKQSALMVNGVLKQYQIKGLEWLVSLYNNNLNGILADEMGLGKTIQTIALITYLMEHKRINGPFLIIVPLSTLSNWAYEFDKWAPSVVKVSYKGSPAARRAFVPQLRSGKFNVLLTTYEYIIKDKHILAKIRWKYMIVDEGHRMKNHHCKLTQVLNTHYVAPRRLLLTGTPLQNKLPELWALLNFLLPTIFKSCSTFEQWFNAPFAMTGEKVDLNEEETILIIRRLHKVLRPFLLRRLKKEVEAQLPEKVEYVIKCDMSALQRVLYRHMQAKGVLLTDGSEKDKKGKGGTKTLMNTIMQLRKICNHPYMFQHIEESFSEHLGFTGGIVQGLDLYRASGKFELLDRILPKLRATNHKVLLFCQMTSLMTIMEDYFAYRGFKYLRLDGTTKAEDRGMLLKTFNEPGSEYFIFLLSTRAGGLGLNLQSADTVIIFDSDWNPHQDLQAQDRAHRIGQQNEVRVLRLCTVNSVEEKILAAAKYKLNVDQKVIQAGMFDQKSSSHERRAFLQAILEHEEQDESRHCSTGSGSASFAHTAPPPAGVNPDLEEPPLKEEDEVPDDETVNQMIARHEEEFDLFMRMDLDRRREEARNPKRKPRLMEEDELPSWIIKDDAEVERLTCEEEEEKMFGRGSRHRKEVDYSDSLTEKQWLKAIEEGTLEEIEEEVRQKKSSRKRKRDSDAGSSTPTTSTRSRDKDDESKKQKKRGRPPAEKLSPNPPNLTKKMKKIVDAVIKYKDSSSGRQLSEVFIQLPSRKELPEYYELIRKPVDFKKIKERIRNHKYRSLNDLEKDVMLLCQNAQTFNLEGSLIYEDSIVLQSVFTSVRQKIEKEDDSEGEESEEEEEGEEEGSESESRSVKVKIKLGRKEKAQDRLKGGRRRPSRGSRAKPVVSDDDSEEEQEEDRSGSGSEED

| Structure (SMILES) | DC50 (SMARCA4-HiBiT) [µM] | Dmax (SMARCA4-HiBiT) [%] | DC50 (SMARCA2-HiBiT) [µM] | Dmax (SMARCA2-HiBiT) [%] | HeLa-HiBit-SM4 Dmax (%) (SMARCA4-HiBiT) |
| --- | --- | --- | --- | --- | --- |
| O=C1CCC(N2Cc3ccc(C4CCN(CC5CCN(C(=O)N6CCN7c8cc(-c9ccccc9O)nnc8NC[C@H]7C6)CC5)CC4)cc3C2=O)C(=O)N1 (stereo partly drawn) [Example 143, 3-(6-(1-((1-((S)-2-(2-hydroxyphenyl)-6,6a,7,8,9,10-hexahydro-5H-pyrazino[1′,2′:4,5]pyrazino[2,3-c]pyridazine-8-carbonyl)piperidin-4-yl)methyl)piperidin-4-yl)-1-oxoisoindolin-2-yl) piperidine-2,6-dione] | 0.01 to 0.1 | 75 to 85 | < 0.01 | > 85 | – |
| O=C1CCC(N2Cc3ccc(N4CCOC(CN5CCC(C(=O)N6CCN7c8cc(-c9ccccc9O)nnc8NC[C@H]7C6)CC5)C4)cc3C2=O)C(=O)N1 (stereo partly drawn) [Example 113, 3-(6-(2-((4-((S)-2-(2-hydroxyphenyl)-6,6a,7,8,9,10-hexahydro-5H-pyrazino[1′,2′:4,5]pyrazino[2,3-c]pyridazine-8-carbonyl)piperidin-1-yl)methyl)morpholino)-1-oxoisoindolin-2-yl)piperidine-2,6-dione] | 0.01 to 0.1 | 50 to 75 | < 0.01 | ≤ 50 | – |
| O=C1CCC(N2C(=O)c3ccc(N4CC[C@H](CN5C[C@@H]6[C@H](C5)[C@H]6CN5CCN6c7cc(-c8ccccc8O)nnc7NC[C@H]6C5)[C@@H](F)C4)cc3C2=O)C(=O)N1 (stereo partly drawn) [Example 193, 2-(2,6-dioxopiperidin-3-yl)-5-[(3R,4R)-3-fluoro-4-[[(1S,5R)-6-[[(10S)-4-(2-hydroxyphenyl)-1,5,6,8,12-pentazatricyclo[8.4.0.02,7]tetradeca-2(7),3,5-trien-12-yl]methyl]-3-azabicyclo [3.1.0]hexan-3-yl]methyl]piperidin-1-yl]isoindole-1,3-dione] | 0.01 to 0.1 | – | < 0.01 | 75 to 85 | C (C=50%<Dmax<=75%) |
| CC1(CN2C[C@@H]3[C@@H](CN4CCN5c6cc(-c7ccccc7O)nnc6NC[C@H]5C4)[C@@H]3C2)CCN(c2ccc3c(c2)C(=O)N(C2CCC(=O)NC2=O)C3=O)C1 (stereo partly drawn) [Example 151, 2-(2,6-dioxopiperidin-3-yl)-5-(3-(((1R,5S,6r)-6-(((S)-2-(2-hydroxyphenyl)-5,6,6a,7,9,10-hexahydro-8H-pyrazino[1′,2′:4,5]pyrazino[2,3-c]pyridazin-8-yl)methyl)-3-azabicyclo[3.1.0]hexan-3-yl)methyl)-3-methylpyrrolidin-1-yl)isoindoline-1,3-dione] | 0.01 to 0.1 | 50 to 75 | < 0.01 | 75 to 85 | – |
| O=C1CCC(N2C(=O)c3ccc(N4CCC(CN5CC6CC(C5)C6CN5CCN6c7cc(-c8ccccc8O)nnc7NC[C@H]6C5)CC4)cc3C2=O)C(=O)N1 (stereo partly drawn) [Example 39, 2-(2,6-dioxopiperidin-3-yl)-5-(4-((6-(((S)-2-(2-hydroxyphenyl)-5,6,6a,7,9,10-hexahydro-8H-pyrazino[1′,2′:4,5]pyrazino[2,3-c]pyridazin-8-yl)methyl)-3-azabicyclo[3.1.1]heptan-3-yl)methyl)piperidin-1-yl)isoindoline-1,3-dione] | < 0.01 | 50 to 75 | < 0.01 | > 85 | – |
| O=C1CCC(N2C(=O)c3ccc(N4CCCC(CN5CCO[C@@H](CN6CCN7c8cc(-c9ccccc9O)nnc8NC[C@H]7C6)C5)C4)cc3C2=O)C(=O)N1 (stereo partly drawn) [Example 79, 2-(2,6-dioxopiperidin-3-yl)-5-(3-(((S)-2-(((S)-2-(2-hydroxyphenyl)-5,6,6a,7,9,10-hexahydro-8H-pyrazino[1′,2′:4,5]pyrazino[2,3-c]pyridazin-8-yl)methyl)morpholino)methyl)piperidin-1-yl)isoindoline-1,3-dione] | < 0.01 | 75 to 85 | < 0.01 | 75 to 85 | – |
| O=C1CCC(N2C(=O)c3ccc(N4CCC(CN5CC6CC5CC6CN5CCN6c7cc(-c8ccccc8O)nnc7NC[C@H]6C5)CC4)cc3C2=O)C(=O)N1 (stereo partly drawn) [Example 136, 2-(2,6-dioxopiperidin-3-yl)-5-(4-((5-(((S)-2-(2-hydroxyphenyl)-5,6,6a,7,9,10-hexahydro-8H-pyrazino[1′,2′:4,5]pyrazino[2,3-c]pyridazin-8-yl)methyl)-2-azabicyclo[2.2.1]heptan-2-yl)methyl)piperidin-1-yl) isoindoline-1,3-dione] | < 0.01 | > 85 | < 0.01 | > 85 | – |

The remaining lines, values ahead:

| DC50 (SMARCA4-HiBiT) [µM] | Dmax (SMARCA4-HiBiT) [%] | DC50 (SMARCA2-HiBiT) [µM] | Dmax (SMARCA2-HiBiT) [%] | HeLa-HiBit-SM4 Dmax (%) (SMARCA4-HiBiT) | Structure (SMILES) |
| --- | --- | --- | --- | --- | --- |
| < 0.01 | 75 to 85 | < 0.01 | > 85 | – | O=C1CCC(N2C(=O)c3ccc(N4CCC(F)(CN5CCC(CN6CCN7c8cc(-c9ccccc9O)nnc8NC[C@H]7C6)CC5)CC4)cc3C2=O)C(=O)N1 (stereo partly drawn) [Example 48, 2-(2,6-dioxopiperidin-3-yl)-5-(4-fluoro-4-((4-(((S)-2-(2-hydroxyphenyl)-5,6,6a,7,9,10-hexahydro-8H-pyrazino[1′,2′:4,5]pyrazino[2,3-c]pyridazin-8-yl)methyl)piperidin-1-yl)methyl)piperidin-1-yl)isoindoline-1,3-dione] |
| < 0.01 | 50 to 75 | < 0.01 | > 85 | – | O=C1CCC(N2C(=O)c3ccc(N4CCC(CN5C[C@@H]6[C@H](C5)[C@@H]6CN5CCN6c7cc(-c8ccccc8O)nnc7NC[C@H]6C5)CC4)cc3C2=O)C(=O)N1 (stereo partly drawn) [Example 43, 2-(2,6-dioxopiperidin-3-yl)-5-(4-(((1R,5S,6s)-6-(((S)-2-(2-hydroxyphenyl)-5,6,6a,7,9,10-hexahydro-8H-pyrazino[1′,2′:4,5]pyrazino[2,3-c]pyridazin-8-yl)methyl)-3-azabicyclo[3.1.0]hexan-3-yl)methyl)piperidin-1-yl)isoindoline-1,3-dione] |
| < 0.01 | > 85 | < 0.01 | > 85 | – | O=C1CCC(N2C(=O)c3ccc(N4CCC(CN5CCC(CN6CCN7c8cc(-c9ccccc9O)nnc8NC[C@H]7C6)CC5)CC4)cc3C2=O)C(=O)N1COP(=O)(O)O (stereo partly drawn) [Example 129, (3-(5-(4-((4-(((S)-2-(2-hydroxyphenyl)-5,6,6a,7,9,10-hexahydro-8H-pyrazino[1′,2′:4,5]pyrazino[2,3-c]pyridazin-8-yl)methyl)piperidin-1-yl)methyl)piperidin-1-yl)-1,3-dioxoisoindolin-2-yl)-2,6-dioxopiperidin-1-yl)methyl) dihydrogen phosphate] |
| < 0.01 | > 85 | < 0.01 | > 85 | – | O=C1CCC(N2C(=O)c3ccc(N4CCC(CN5CCC(CN6CCN7c8cc(-c9ccccc9O)nnc8NC[C@H]7C6)CC5)C(F)(F)C4)cc3C2=O)C(=O)N1 (stereo partly drawn) [Example 181, 5-[3,3-difluoro-4-[[4-[[(10S)-4-(2-hydroxyphenyl)-1,5,6,8,12-pentazatricyclo[8.4.0.02,7]tetradeca-2,4,6-trien-12-yl]methyl]piperidin-1-yl]mehtyl]piperidin-1-yl]-2-(2,6-dioxopiperidin-3-yl) isoindoline-1,3-dione] |
| < 0.01 | 50 to 75 | < 0.01 | 50 to 75 | – | O=C1CCC(n2c3ccc(CCCN4CCC(N5CCN(C6C[C@@H]7CNc8nnc(-c9ccccc9O)cc8N7C6)CC5)CC4)cc3c3cccnc32)C(=O)N1 (stereo partly drawn) [Example 27, 3-(6-(3-(4-(4-((6aR)-2-(2-hydroxyphenyl)-5,6,6a,7,8,9-hexahydropyrrolo [1′,2′:4,5]pyrazino[2,3-c]pyridazin-8-yl)piperazin-1-yl)piperidin-1-yl)propyl)-9H-pyrido[2,3-b]indol-9-yl)piperidine-2,6-dione] |
| < 0.01 | > 85 | < 0.01 | > 85 | – | CN(CCN1CCC(N2CCN3c4cc(-c5ccccc5O)nnc4NC[C@H]3C2)CC1)C1CCN(c2ccc3c(c2)C(=O)N(C2CCC(=O)NC2=O)C3=O)CC1 (stereo partly drawn) [Example 158, 2-(2,6-dioxopiperidin-3-yl)-5-(4-((2-(4-((S)-2-(2-hydroxyphenyl)-5,6,6a,7,9,10-hexahydro-8H-pyrazino[1′,2′:4,5]pyrazino[2,3-c]pyridazin-8-yl)piperidin-1-yl)ethyl)(methyl)amino)piperidin-1-yl)isoindoline-1,3-dione] |
| < 0.01 | 75 to 85 | < 0.01 | 75 to 85 | – | O=C1CCC(N2C(=O)c3ccc(N4CCC5(CN6CCC(CN7CCN8c9cc(-c%10ccccc%10O)nnc9NC[C@H]8C7)CC6)CC5C4)cc3C2=O)C(=O)N1 (stereo partly drawn) [Example 189, 2-(2,6-dioxopiperidin-3-yl)-5-[6-[[4-[[(10S)-4-(2-hydroxyphenyl)-1,5,6,8,12-pentazatricyclo[8.4.0.02,7]tetradeca-2(7),3,5-trien-12-yl]methyl]piperidin-1-yl]methyl]-3-azabicyclo[4.1.0]heptan-3-yl]isoindole-1,3-dione] |
| < 0.01 | 50 to 75 | < 0.01 | > 85 | – | O=C1CCC(N2C(=O)c3ccc(N4CCO[C@@H](CN5C[C@@H]6[C@H](C5)[C@H]6CN5CCN6c7cc(-c8ccccc8O)nnc7NC[C@H]6C5)C4)cc3C2=O)C(=O)N1 (stereo partly drawn) [Example 51, 2-(2,6-dioxopiperidin-3-yl)-5-((S)-2-(((1R,5S,6R)-6-(((S)-2-(2-hydroxyphenyl)-5,6,6a,7,9,10-hexahydro-8H-pyrazino[1′,2′:4,5]pyrazino[2,3-c]pyridazin-8-yl)methyl)-3-azabicyclo[3.1.0]hexan-3-yl)methyl)morpholino)isoindoline-1,3-dione] |
